Values after ≈ are worked out from the molar mass of the structure shown. Where a SMILES comes first, the peptide text is derived from it. [ ]: non-standard residue; d: D form. The star is where a group is joined. Octanoyl(7-Me) = CC(C)CCCCCC(=O)*; dOrn = NCCC[C@@H](N)C(=O)O; Orn = NCCC[C@H](N)C(=O)O; Dap = NC[C@H](N)C(=O)O; Alloc = C=CCOC(=O)*; OAll = C=CCO*
Experiments:
E. coli (MCR-1) = type: cell-based, Escherichia coli; details: microbroth dilution per CLSI, MHB, 18 h at 37 °C, visual inspection, three technical replicates, E. coli 25922 carrying mcr-1
Procedure, shortened: (§1)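 MIC taken as the lowest concentration with no visible growth after 18 h, 37 °C, shaking, three technical replicates. Peptides were serially diluted in MHB and received cells from TSB cultures at OD600 ~0.5, diluted to 2 × 10^5 CFU/mL (kanamycin selection for the mcr-1 E. coli), following CLSI guidelines.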

E. coli ATCC 25922 = type: cell-based, Escherichia coli; details: for Antibacterial activity (MIC) E. coli ATCC 25922: microbroth dilution per CLSI, MHB, 18 h at 37 °C, visual inspection, three technical replicates; for MIC (µg/mL) against E. coli (ATCC 25922): (Supplement 2)
Procedure, shortened: as §1

K. pneumoniae ATCC 13883 = type: cell-based, Klebsiella pneumoniae; details: microbroth dilution per CLSI, MHB, 18 h at 37 °C, visual inspection, three technical replicates
Experimental: (§2) Linear laterocidine (LL-OH, 4) and linear brevicidine (LB-OH, 5) were first synthesized by Fmoc SPPS, starting from 2-chlorotrityl (2-CT) chloride resin. The antibacterial activity of these peptides was then compared to brevicidine (1) and laterocidine (2) using minimum inhibitory concentration (MIC)/microbroth dilution assays (Table 1). The MICs of all peptides were determined against a panel of Gram-negative and Gram-positive ESKAPE pathogens. Additionally, a strain of E. coli carrying the mcr-1 gene was included in the panel. The mcr-1 gene is a transferrable plasmid that confers resistance against colistin, a last-resort antibiotic for Gram-negative infections, by reducing the overall negative charge of lipopolysaccharide (LPS) through modification of lipid A with phosphoethanolamine. The propensity for cationic antibiotics to bind to the cell membrane is therefore reduced. This gene has been observed in more than 27 bacterial species over six continents.[26] The spread of the mcr-1 gene could render colistin ineffectual; therefore, novel antibacterials are urgently required to overcome this form of resistance.
(§3) All minimum inhibitory concentrations (MICs) were determined according to Clinical and Laboratory Standards Institute (CLSI) guidelines. Blood agar plates were inoculated with glycerol stocks of E. coli ATCC 25922, K. pneumoniae ATCC 13883, A. baumannii ATCC 17961, P. aeruginosa PAO1, and S. aureus USA300. The inoculated agar plates were then incubated for 16 h at 37 °C. Individually grown colonies were subsequently used to inoculate 5 mL aliquots of TSB that were then incubated at 37 °C with shaking at 220 rpm. E. coli 25922 MCR-1 glycerol stock was used to inoculate 5 mL of TSB supplemented with kanamycin that was then incubated for 16 h at 37 °C with shaking at 220 rpm. The next day the culture was diluted 100-fold in TSB supplemented with kanamycin and incubated at 37 °C with shaking at 220 rpm. In parallel, the lipopeptide antibiotics DMSO stocks to be assessed were serially diluted with MHB in polypropylene 96-well plates (50 μL in each well). Colistin sulfate stocks were dissolved in water before being diluted with MHB. Aliquots of the inoculated TSB were incubated until an OD600 of around 0.5 was reached. The bacterial suspensions were then diluted with MHB (2 × 10^5 CFU/mL) and added to the microplates containing the test compounds (50 μL to each well). The well plates were sealed with an adhesive membrane and after 18 h of incubation at 37 °C with shaking at 600 rpm, the wells were visually inspected for bacterial growth. MIC values reported are based on three technical replicates and defined as the lowest concentration of the compound that prevented visible growth of bacteria.

A. baumannii ATCC 17961 = type: cell-based, Acinetobacter baumannii; details: microbroth dilution per CLSI, MHB, 18 h at 37 °C, visual inspection, three technical replicates
Experimental: as §2, §3

P. aeruginosa PAO1 = type: cell-based, Pseudomonas aeruginosa; details: microbroth dilution per CLSI, MHB, 18 h at 37 °C, visual inspection, three technical replicates
Experimental: as §2, §3

S. aureus USA300 = type: cell-based, Staphylococcus aureus; details: microbroth dilution per CLSI, MHB, 18 h at 37 °C, visual inspection, three technical replicates
Experimental: as §2, §3

SMILES	Antibacterial activity (MIC) E. coli (MCR-1) (E. coli (MCR-1)) [µg/mL]	Antibacterial activity (MIC) E. coli ATCC 25922 (E. coli ATCC 25922) [µg/mL]	Antibacterial activity (MIC) K. pneumoniae ATCC 13883 (K. pneumoniae ATCC 13883) [µg/mL]	Antibacterial activity (MIC) A. baumannii ATCC 17961 (A. baumannii ATCC 17961) [µg/mL]	Antibacterial activity (MIC) P. aeruginosa PAO1 (P. aeruginosa PAO1) [µg/mL]	Antibacterial activity (MIC) S. aureus USA300 (S. aureus USA300) [µg/mL]	MIC (µg/mL) against E. coli (ATCC 25922) (E. coli ATCC 25922) [µg/mL]
CC[C@H](C)[C@H](NC(=O)[C@@H](NC(=O)[C@H](Cc1c[nH]c2ccccc12)NC(=O)[C@@H](CCCN)NC(=O)CNC(=O)[C@H](CCCN)NC(=O)[C@@H](C)NC(=O)[C@@H](Cc1c[nH]c2ccccc12)NC(=O)[C@@H](Cc1ccc(O)cc1)NC(=O)[C@@H](CO)NC(=O)CCCCCC(C)C)[C@@H](C)O)C(=O)N[C@@H](CC(N)=O)C(=O)NCC(=O)NCC(N)=O [LL(D-Ala4)-NH2 (32)] ({Octanoyl(7-Me)}-[dS][dY][dW][dA][Orn]G[dOrn]WTINGG-NH2)	>32	>32	>32	32	>32	>32	
CC[C@H](C)[C@H](NC(=O)[C@@H](NC(=O)[C@H](Cc1c[nH]c2ccccc12)NC(=O)[C@@H](C)NC(=O)CNC(=O)[C@H](CCCN)NC(=O)[C@@H](CCCN)NC(=O)[C@@H](Cc1c[nH]c2ccccc12)NC(=O)[C@@H](Cc1ccc(O)cc1)NC(=O)[C@@H](CO)NC(=O)CCCCCC(C)C)[C@@H](C)O)C(=O)N[C@@H](CC(N)=O)C(=O)NCC(=O)NCC(N)=O [LL(D-Ala7)-NH2 (35)] ({Octanoyl(7-Me)}-[dS][dY][dW][dOrn][Orn]G[dA]WTINGG-NH2)	>32	>32	>32	32	32	>32	
C=CCOC(=O)NC[C@H](NC(=O)[C@H](Cc1c[nH]c2ccccc12)NC(=O)[C@@H](CCCN)NC(=O)CNC(=O)[C@H](CCCN)NC(=O)[C@@H](CCCN)NC(=O)[C@@H](Cc1c[nH]c2ccccc12)NC(=O)[C@@H](Cc1ccc(O)cc1)NC(=O)[C@@H](CO)NC(=O)CCCCCC(C)C)C(=O)N[C@H](C(=O)N[C@@H](CC(N)=O)C(=O)NCC(=O)NCC(N)=O)[C@@H](C)CC [LL(Dap[Alloc]9)-NH2 (50)] ({Octanoyl(7-Me)}-[dS][dY][dW][dOrn][Orn]G[dOrn]W[Dap](Alloc)INGG-NH2)	4	2	4	4	8	>32	2 (≈ 1.18 µM)
CC[C@H](C)[C@H](NC(=O)[C@H](CCC(N)=O)NC(=O)[C@H](Cc1c[nH]c2ccccc12)NC(=O)[C@@H](CCCN)NC(=O)CNC(=O)[C@H](CCCN)NC(=O)[C@@H](CCCN)NC(=O)[C@@H](Cc1c[nH]c2ccccc12)NC(=O)[C@@H](Cc1ccc(O)cc1)NC(=O)[C@@H](CO)NC(=O)CCCCCC(C)C)C(=O)N[C@@H](CC(N)=O)C(=O)NCC(=O)NCC(N)=O [LL(Gln9)-NH2 (48)] ({Octanoyl(7-Me)}-[dS][dY][dW][dOrn][Orn]G[dOrn]WQINGG-NH2)	8	4	4	8	4	>32	4 (≈ 2.43 µM)
C=CCOC(=O)CC[C@H](NC(=O)[C@H](Cc1c[nH]c2ccccc12)NC(=O)[C@@H](CCCN)NC(=O)CNC(=O)[C@H](CCCN)NC(=O)[C@@H](CCCN)NC(=O)[C@@H](Cc1c[nH]c2ccccc12)NC(=O)[C@@H](Cc1ccc(O)cc1)NC(=O)[C@@H](CO)NC(=O)CCCCCC(C)C)C(=O)N[C@H](C(=O)N[C@@H](CC(N)=O)C(=O)NCC(=O)NCC(N)=O)[C@@H](C)CC [LL(Glu[OAll]9)-NH2 (51)] ({Octanoyl(7-Me)}-[dS][dY][dW][dOrn][Orn]G[dOrn]WE(OAll)INGG-NH2)	16	16	>32	16	>32	>32	16 (≈ 9.47 µM)
CC[C@H](C)[C@H](NC(=O)[C@H](CC(C)C)NC(=O)[C@H](Cc1c[nH]c2ccccc12)NC(=O)[C@@H](CCCN)NC(=O)CNC(=O)[C@H](CCCN)NC(=O)[C@@H](CCCN)NC(=O)[C@@H](Cc1c[nH]c2ccccc12)NC(=O)[C@@H](Cc1ccc(O)cc1)NC(=O)[C@@H](CO)NC(=O)CCCCCC(C)C)C(=O)N[C@@H](CC(N)=O)C(=O)NCC(=O)NCC(N)=O [LL(Leu9)-NH2 (42)] ({Octanoyl(7-Me)}-[dS][dY][dW][dOrn][Orn]G[dOrn]WLINGG-NH2)	8	4	8	4	8	>32	4 (≈ 2.45 µM)
CC[C@H](C)[C@H](NC(=O)[C@H](CCSC)NC(=O)[C@H](Cc1c[nH]c2ccccc12)NC(=O)[C@@H](CCCN)NC(=O)CNC(=O)[C@H](CCCN)NC(=O)[C@@H](CCCN)NC(=O)[C@@H](Cc1c[nH]c2ccccc12)NC(=O)[C@@H](Cc1ccc(O)cc1)NC(=O)[C@@H](CO)NC(=O)CCCCCC(C)C)C(=O)N[C@@H](CC(N)=O)C(=O)NCC(=O)NCC(N)=O [LL(Met9)-NH2 (44)] ({Octanoyl(7-Me)}-[dS][dY][dW][dOrn][Orn]G[dOrn]WMINGG-NH2)	4	4	4	4	4	>32	4 (≈ 2.42 µM)
CC[C@H](C)[C@H](NC(=O)[C@H](Cc1ccccc1)NC(=O)[C@H](Cc1c[nH]c2ccccc12)NC(=O)[C@@H](CCCN)NC(=O)CNC(=O)[C@H](CCCN)NC(=O)[C@@H](CCCN)NC(=O)[C@@H](Cc1c[nH]c2ccccc12)NC(=O)[C@@H](Cc1ccc(O)cc1)NC(=O)[C@@H](CO)NC(=O)CCCCCC(C)C)C(=O)N[C@@H](CC(N)=O)C(=O)NCC(=O)NCC(N)=O [LL(Phe9)-NH2 (43)] ({Octanoyl(7-Me)}-[dS][dY][dW][dOrn][Orn]G[dOrn]WFINGG-NH2)	4	4	8	4	8	>32	4 (≈ 2.4 µM)

Reference: paper PMC10150354, “Linearization of the Brevicidine and Laterocidine Lipopeptides Yields Analogues That Retain Full Antibacterial Activity” (Journal of Medicinal Chemistry, 2023)
